Tested on: A375
Assay: pERK immunofluorescence, normalised; higher = more ERK phosphorylation
Details: vemurafenib 0 µM, drug treatment time 24 h
Procedure: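 A375 or A375 CRISPRa-EGFR (A375_Cra_F7_5/13) cells were adapted for 24 h to a cobimetinib dose series, with or without 1 uM vemurafenib, then stimulated with EGF (100 ng/mL) or mock medium and fixed at the indicated times. pERK was measured by immunofluorescence as the population mean normalised to baseline, with the SD of technical replicates (n=2).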

O=C(c1ccc(F)c(F)c1Nc1ccc(I)cc1F)N1CC(O)([C@@H]2CCCCN2)C1 [cobimetinib]
pERK immunofluorescence
Details	cobimetinib 31.62 pM	cobimetinib 0.0001 µM	cobimetinib 0.000316228 µM	cobimetinib 0.001 µM	cobimetinib 0.003162278 µM	cobimetinib 0.01 µM	cobimetinib 0.031622777 µM	cobimetinib 0.1 µM	cobimetinib 0.316227766 µM	cobimetinib 1 µM
EGF 0 ng/mL, time after EGF/mock 0.083 h	0.965	0.9579	0.873	0.658	0.313	0.16	0.1379	0.13	0.1264	0.1263
EGF 0 ng/mL, time after EGF/mock 0.5 h	0.9998	0.958	0.8944	0.679	0.306	0.157	0.135	0.1283	0.1262	0.126
EGF 0 ng/mL, time after EGF/mock 2 h	0.961	0.958	0.904	0.746	0.358	0.152	0.1311	0.1245	0.1235	0.1235
EGF 0 ng/mL, time after EGF/mock 8 h	0.97332	0.972	0.93	0.7507	0.312	0.132	0.1135	0.113	0.105	0.1046
EGF 0 ng/mL, time after EGF/mock 24 h	0.962	0.985	0.952	0.817	0.399	0.1129	0.10189	0.103	0.1021	0.0982
EGF 100 ng/mL, time after EGF/mock 0.083 h	1.19	1.2	1.133	1.18	1.39	1.4	1.37	1.04	0.268	0.134
EGF 100 ng/mL, time after EGF/mock 0.5 h	1.03	1.03	0.9538	0.887	0.782	0.594	0.411	0.333	0.336	0.144
EGF 100 ng/mL, time after EGF/mock 2 h	0.959	0.965	0.891	0.782	0.4241	0.176	0.136	0.1271	0.1234	0.12285
EGF 100 ng/mL, time after EGF/mock 8 h	0.946	0.9729	0.909	0.786	0.487	0.168	0.124	0.114	0.1065	0.1039
EGF 100 ng/mL, time after EGF/mock 24 h	0.8607	0.897	0.854	0.773	0.518	0.128	0.1071	0.1048	0.104	0.0978
